This note sets out measurements from PMC5540273, “Progress towards a public chemogenomic set for protein kinases and a call for contributions” (PLoS ONE, 2017).

SMILES strings stand for the structures.

Assay in all cases: KINOMEscan competition binding
One assay has as its target T1, GRK7 (Homo sapiens, UniProt Q8WTQ7).
T1 sequence (Q8WTQ7 1-553): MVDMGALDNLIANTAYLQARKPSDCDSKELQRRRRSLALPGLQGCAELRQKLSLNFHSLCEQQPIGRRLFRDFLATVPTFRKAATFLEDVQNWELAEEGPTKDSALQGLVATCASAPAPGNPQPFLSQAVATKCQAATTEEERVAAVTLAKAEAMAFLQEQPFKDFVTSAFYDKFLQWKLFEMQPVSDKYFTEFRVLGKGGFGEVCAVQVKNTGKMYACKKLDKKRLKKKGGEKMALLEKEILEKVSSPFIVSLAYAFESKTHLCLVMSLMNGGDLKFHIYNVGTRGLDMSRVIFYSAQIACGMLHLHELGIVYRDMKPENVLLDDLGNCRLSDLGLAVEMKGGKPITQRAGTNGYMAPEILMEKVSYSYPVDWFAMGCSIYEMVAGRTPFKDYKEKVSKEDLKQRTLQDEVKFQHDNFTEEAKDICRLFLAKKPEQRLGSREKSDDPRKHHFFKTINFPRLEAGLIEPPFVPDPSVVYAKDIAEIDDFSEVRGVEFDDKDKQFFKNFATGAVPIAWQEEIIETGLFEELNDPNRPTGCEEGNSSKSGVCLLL
Particulars: read-out: %Inh GRK7.

A further assay concerns the target DDR1 (Homo sapiens, UniProt Q08345). The note with it: read-out: %Inh DDR1.
The target of another assay is CDK4-cyclinD3 (Homo sapiens, UniProt P11802). Particulars: read-out: %Inh CDK4-cyclinD3.
Chain of CDK4-cyclinD3 (P11802 whole entry): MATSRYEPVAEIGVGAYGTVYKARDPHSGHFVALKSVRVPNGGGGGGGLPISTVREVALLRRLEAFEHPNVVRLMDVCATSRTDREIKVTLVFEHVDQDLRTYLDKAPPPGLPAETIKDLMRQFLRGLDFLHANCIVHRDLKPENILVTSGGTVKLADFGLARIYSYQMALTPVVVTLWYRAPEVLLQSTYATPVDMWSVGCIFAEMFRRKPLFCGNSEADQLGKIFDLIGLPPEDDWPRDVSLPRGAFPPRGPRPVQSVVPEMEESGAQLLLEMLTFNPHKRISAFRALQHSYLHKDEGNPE
Chain of CDK4-cyclinD3 (P30281 whole entry partner): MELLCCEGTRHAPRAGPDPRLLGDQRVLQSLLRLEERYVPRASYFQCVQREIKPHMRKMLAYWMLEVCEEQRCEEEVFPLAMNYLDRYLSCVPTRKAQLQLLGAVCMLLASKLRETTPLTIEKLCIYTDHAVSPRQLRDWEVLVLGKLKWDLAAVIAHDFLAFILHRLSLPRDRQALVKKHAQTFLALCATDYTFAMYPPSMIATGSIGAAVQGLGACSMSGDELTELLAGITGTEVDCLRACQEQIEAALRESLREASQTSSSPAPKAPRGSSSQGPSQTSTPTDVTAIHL
The next assay concerns the target T2, DCAMKL2 (Homo sapiens, UniProt Q8N568).
T2 sequence (Q8N568 1-766): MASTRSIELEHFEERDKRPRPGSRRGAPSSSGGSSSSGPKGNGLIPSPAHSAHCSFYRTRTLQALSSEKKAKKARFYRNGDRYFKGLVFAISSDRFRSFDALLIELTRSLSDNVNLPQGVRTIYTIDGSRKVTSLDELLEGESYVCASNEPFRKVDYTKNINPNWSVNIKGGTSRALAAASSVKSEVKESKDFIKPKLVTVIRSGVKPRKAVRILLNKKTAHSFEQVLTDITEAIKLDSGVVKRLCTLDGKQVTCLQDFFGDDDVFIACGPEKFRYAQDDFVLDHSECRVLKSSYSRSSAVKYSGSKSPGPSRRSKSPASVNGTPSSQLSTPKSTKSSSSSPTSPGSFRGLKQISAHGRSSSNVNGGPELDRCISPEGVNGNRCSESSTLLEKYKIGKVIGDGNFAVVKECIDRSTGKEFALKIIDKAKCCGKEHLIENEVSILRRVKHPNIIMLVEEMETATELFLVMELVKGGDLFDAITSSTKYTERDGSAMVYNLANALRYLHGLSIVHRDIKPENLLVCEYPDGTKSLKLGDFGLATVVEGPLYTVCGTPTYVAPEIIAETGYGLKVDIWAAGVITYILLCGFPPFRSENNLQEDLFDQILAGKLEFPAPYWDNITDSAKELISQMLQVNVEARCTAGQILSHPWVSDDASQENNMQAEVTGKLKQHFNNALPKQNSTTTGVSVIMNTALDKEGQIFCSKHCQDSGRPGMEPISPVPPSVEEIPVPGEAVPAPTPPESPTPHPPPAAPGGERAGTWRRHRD
The note with it: read-out: %Inh DCAMKL2.

Another assay has as its target EPHA2 (Homo sapiens, UniProt P29317). The note with it: read-out: %Inh EPHA2.
The next assay has as its target BRAF (Homo sapiens, UniProt P15056). The note with it: read-out: %Inh BRAF.
In the next assay the target is BTK (Homo sapiens, UniProt Q06187). Particulars: read-out: %Inh BTK.
Chain of BTK (Q06187 whole entry): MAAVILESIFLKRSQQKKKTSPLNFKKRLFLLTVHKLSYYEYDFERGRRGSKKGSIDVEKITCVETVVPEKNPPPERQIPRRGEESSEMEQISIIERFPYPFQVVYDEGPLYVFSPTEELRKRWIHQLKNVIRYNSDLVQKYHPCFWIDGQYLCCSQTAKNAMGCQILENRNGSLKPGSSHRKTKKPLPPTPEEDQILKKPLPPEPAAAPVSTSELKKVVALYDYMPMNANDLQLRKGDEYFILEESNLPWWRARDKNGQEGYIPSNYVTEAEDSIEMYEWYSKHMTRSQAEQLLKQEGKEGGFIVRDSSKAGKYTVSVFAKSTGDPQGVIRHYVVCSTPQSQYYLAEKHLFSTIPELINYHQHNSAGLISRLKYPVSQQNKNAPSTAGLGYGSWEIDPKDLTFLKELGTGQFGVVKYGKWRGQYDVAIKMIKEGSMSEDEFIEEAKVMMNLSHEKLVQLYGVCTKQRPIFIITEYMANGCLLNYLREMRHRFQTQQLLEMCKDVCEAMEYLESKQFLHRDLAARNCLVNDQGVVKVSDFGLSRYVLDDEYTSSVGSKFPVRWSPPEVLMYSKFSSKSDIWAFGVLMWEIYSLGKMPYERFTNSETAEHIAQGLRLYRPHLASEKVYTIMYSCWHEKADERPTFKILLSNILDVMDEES
The target in a further assay is CLK3 (Homo sapiens, UniProt P49761). Particulars: read-out: %Inh CLK3.
Chain of CLK3 (P49761 whole entry): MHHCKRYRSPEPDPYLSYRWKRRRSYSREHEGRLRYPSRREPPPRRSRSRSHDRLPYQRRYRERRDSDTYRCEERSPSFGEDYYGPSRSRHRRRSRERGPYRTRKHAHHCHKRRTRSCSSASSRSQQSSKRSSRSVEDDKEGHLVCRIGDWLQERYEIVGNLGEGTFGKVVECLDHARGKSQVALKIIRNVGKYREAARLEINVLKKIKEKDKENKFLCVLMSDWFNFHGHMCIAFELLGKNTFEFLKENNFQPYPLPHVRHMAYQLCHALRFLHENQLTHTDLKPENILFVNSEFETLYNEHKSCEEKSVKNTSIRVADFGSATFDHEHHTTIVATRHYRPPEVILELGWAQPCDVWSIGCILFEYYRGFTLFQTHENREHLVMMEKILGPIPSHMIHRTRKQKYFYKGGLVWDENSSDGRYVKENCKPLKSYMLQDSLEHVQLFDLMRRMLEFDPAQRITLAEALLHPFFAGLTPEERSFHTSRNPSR
The next assay addresses ACVR2B (Homo sapiens, UniProt Q13705). The note with it: read-out: %Inh ACVR2B.
A further assay deals with AKT3 (Homo sapiens, UniProt Q9Y243). The note with it: read-out: %Inh AKT3.
Chain of AKT3 (Q9Y243 whole entry): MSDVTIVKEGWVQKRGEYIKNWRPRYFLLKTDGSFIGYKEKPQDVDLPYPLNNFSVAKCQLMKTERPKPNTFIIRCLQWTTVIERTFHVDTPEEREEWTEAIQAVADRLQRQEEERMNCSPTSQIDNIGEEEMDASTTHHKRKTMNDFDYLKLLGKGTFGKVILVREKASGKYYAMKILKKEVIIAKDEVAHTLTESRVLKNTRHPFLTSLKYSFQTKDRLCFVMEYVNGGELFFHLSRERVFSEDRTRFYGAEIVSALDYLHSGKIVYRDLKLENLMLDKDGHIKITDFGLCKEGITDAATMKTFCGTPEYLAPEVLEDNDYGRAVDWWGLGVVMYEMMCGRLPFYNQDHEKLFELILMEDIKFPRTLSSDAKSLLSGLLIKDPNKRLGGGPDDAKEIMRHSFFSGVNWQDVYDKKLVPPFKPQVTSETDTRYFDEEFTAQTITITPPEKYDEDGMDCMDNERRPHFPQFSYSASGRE
The target of the next assay is T3, EPHB4 (Homo sapiens, UniProt P54760).
T3 sequence (P54760 16-987): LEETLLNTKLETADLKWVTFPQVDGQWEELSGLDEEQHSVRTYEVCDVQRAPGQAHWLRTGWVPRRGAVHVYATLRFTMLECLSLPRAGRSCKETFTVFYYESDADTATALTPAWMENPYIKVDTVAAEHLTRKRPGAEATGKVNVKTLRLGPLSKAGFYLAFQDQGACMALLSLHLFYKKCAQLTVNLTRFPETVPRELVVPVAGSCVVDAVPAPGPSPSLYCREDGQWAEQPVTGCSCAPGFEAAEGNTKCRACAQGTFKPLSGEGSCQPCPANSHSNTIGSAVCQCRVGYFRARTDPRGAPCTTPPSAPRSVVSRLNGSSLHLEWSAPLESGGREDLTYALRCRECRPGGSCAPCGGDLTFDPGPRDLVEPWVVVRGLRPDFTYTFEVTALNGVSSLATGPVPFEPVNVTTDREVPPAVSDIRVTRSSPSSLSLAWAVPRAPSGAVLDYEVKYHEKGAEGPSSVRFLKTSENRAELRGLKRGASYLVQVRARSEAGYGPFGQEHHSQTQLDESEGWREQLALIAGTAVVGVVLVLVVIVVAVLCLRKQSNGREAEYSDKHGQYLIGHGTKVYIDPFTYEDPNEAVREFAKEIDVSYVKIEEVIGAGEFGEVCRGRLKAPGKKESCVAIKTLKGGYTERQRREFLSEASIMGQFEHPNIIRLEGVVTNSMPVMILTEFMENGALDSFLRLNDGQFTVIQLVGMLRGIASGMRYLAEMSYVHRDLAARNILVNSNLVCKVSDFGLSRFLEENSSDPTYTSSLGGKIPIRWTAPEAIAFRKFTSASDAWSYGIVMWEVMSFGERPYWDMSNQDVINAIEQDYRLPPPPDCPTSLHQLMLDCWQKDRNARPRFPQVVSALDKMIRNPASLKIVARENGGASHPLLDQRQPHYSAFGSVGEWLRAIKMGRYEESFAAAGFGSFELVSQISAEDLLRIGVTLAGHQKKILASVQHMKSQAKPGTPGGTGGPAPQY
The note with it: read-out: %Inh EPHB4.

Chain of BRAF (P15056 whole entry): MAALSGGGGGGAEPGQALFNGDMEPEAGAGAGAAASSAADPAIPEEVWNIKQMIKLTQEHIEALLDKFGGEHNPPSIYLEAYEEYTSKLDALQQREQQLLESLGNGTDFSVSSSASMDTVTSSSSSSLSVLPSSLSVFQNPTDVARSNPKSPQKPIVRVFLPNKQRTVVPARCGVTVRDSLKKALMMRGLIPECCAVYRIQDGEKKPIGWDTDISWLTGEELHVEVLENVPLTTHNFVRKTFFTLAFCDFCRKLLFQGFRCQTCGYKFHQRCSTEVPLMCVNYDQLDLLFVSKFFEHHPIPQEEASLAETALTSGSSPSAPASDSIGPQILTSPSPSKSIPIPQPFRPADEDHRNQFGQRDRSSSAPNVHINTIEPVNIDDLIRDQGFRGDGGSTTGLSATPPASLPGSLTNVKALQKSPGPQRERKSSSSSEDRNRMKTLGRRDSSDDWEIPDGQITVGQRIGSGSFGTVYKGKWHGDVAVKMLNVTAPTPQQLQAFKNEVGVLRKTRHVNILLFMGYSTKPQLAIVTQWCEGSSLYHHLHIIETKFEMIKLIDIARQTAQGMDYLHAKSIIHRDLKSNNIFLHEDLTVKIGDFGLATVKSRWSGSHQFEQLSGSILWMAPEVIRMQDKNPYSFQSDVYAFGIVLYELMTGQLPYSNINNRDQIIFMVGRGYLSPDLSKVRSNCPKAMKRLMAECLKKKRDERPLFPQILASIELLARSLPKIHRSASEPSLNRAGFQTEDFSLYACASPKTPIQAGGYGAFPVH
Chain of DDR1 (Q08345 19-913): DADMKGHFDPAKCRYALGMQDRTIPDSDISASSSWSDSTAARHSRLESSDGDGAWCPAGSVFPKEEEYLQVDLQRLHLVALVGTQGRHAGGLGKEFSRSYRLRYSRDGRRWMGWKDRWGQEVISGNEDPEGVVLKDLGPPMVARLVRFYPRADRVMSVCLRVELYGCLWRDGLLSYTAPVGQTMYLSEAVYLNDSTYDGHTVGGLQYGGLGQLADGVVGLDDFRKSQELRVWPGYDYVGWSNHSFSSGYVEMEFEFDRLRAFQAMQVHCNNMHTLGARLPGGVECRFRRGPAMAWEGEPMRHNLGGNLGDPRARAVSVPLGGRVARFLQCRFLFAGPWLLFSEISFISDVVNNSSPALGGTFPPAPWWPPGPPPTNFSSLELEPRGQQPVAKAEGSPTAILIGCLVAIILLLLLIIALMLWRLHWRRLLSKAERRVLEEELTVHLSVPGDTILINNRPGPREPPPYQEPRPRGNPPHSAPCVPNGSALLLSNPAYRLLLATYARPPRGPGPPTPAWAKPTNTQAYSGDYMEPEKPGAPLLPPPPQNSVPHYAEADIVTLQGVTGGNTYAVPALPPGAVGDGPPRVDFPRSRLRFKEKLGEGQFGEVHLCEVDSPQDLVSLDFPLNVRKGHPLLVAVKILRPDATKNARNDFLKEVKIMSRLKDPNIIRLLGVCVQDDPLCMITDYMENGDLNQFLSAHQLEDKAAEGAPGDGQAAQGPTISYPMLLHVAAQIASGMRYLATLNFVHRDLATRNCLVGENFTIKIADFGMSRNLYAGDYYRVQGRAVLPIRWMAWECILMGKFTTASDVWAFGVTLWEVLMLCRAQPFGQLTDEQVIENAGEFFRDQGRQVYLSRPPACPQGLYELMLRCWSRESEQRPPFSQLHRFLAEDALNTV
Chain of EPHA2 (P29317 24-976): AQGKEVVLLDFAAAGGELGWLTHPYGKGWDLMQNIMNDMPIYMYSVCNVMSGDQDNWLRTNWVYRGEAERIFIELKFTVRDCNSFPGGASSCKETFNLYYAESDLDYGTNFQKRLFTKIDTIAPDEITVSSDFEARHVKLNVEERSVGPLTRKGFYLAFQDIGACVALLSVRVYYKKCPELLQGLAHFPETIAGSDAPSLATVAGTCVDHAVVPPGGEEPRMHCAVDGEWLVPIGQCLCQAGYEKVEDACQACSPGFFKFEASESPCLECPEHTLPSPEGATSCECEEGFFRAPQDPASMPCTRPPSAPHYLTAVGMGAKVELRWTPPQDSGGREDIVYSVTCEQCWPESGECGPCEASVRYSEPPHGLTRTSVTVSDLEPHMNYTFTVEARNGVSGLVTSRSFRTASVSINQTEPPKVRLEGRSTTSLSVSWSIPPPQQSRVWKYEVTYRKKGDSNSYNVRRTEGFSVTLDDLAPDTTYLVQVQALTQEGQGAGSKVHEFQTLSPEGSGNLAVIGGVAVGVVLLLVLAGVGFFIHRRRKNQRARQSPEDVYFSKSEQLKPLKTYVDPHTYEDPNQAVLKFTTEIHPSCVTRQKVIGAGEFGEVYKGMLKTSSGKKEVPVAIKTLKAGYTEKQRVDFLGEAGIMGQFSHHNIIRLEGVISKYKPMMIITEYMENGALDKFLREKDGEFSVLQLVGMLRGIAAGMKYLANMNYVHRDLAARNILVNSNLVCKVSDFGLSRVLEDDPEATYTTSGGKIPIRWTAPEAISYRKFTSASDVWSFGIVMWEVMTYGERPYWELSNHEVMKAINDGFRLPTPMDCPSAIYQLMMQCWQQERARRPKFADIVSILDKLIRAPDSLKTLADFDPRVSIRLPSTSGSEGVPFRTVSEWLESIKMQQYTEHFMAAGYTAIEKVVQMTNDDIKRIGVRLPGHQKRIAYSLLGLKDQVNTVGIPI

For `O=c1cc(N2CCOCC2)nc2n(Cc3cccc(Cl)c3Cl)c(C3CC3)nn12` [UNC10225469A], the inhibition at 1 µM is 0% on GRK7; 21% at DDR1; 0% at CDK4-cyclinD3; 7% at DCAMKL2; 0% at EPHA2; 0% at BRAF. Also, the inhibition at 1 µM on BTK turned out to be 0%; on CLK3, 14%; at ACVR2B it was 0%; on AKT3, 0%; on EPHB4, 3%.

As for `COc1cccc(OC)c1C(=O)Nc1cccc(-c2nn3ccccc3c2-c2ccnc(Nc3cccc(F)c3)n2)c1` [UNC10225310A], the inhibition at 1 µM is 17% on GRK7; 99.3% on DDR1; 7% on CDK4-cyclinD3; 0% at DCAMKL2; 11% at EPHA2; 17% at BRAF. The inhibition at 1 µM stood at 0% at BTK; 0% at CLK3; 27% on ACVR2B; 0% at AKT3; 8% at EPHB4.

With `CS(=O)(=O)Cc1ccc(Nc2nccc(-c3c(-c4cccc(NC(=O)C5CCCCC5)c4)nn4ncccc34)n2)cc1` [UNC10225159A], the inhibition at 1 µM at GRK7 was determined as 5%; on DDR1, 96.6%; at CDK4-cyclinD3 it was 18%; on DCAMKL2 it was 15%; at EPHA2 it was 51%; on BRAF, 20%. The inhibition at 1 µM on BTK came to 0%; on CLK3, 24%; on ACVR2B, 0%; on AKT3 it was 0%; on EPHB4, 0%.

In the case of `Cc1ccc(NC(=O)Nc2cccc(C(F)(F)F)c2)cc1` [UNC10225187A], the inhibition at 1 µM at GRK7 was 10%; at DDR1, 43%; on CDK4-cyclinD3 it was 0%; at DCAMKL2 it was 0%; on EPHA2 it was 0%; at BRAF, 0%. Moreover, the inhibition at 1 µM on BTK, at CLK3, on ACVR2B, on AKT3 and on EPHB4 was 0% throughout.

As for `Cn1cc(-c2cnc(N)c3c(-c4ccc5c(c4)CCN5C(=O)Cc4ccccc4)csc23)cn1` [UNC10225012A], the inhibition at 1 µM at GRK7 worked out at 6%; on DDR1, 97.7%; on CDK4-cyclinD3 it was 0%; at DCAMKL2 it was 0%; on EPHA2, 0%; at BRAF, 0%. The inhibition at 1 µM on BTK came to 0%; at CLK3 it was 0%; on ACVR2B, 0%; at AKT3 it was 8%; on EPHB4, 9%.
